From ChEMBL document CHEMBL6121014, “Novel α-mangostin derivatives as promising antiviral agents: Isolation, synthesis, and evaluation against chikungunya virus” (Eur J Med Chem, 2025)
Activity calls are given as the source filed them. The calls are words filed in the database; no cut-off is given here.

Assays:
[1] = tested on: Vero; assay: (§1) Cytotoxicity against green monkey Vero cells assessed as reduction in cell viability at 24 to 48 hrs by MTT assay; assay type: toxicity, cell-based; design: Activity: concentration or dose not given beside the values; details: chlorocebus sabaeus, vero; time 24-48 hrs
[2] = as §1; assay type: toxicity, cell-based; design: Activity: concentration or dose not given beside the values; details: chlorocebus sabaeus, Vero cells; time 24-48 hrs
[3] = tested on: Chikungunya virus; assay: Antiviral activity against CHIKV infected in green monkey Vero cells assessed as reduction in viral titer at 3.125 uM pretreated the cells with viral infection for 1 hr followed by compound addition and measured after 24 hrs by Foci forming unit assay (reference value: 8.55 log10FFU/ml); assay type: functional
[4] = tested on: Chikungunya virus; assay: (§2) Antiviral activity against CHIKV infected in green monkey Vero cells assessed as reduction in viral titer pretreated the cells with viral infection for 1 hr followed by compound addition and measured after 24 hrs by Foci forming unit assay; assay type: functional, organism-based
[5] = tested on: Chikungunya virus; assay: Antiviral activity against CHIKV infected in green monkey Vero cells assessed as reduction in viral titer at 6.25 uM pretreated with compound for 24 hrs followed by viral infection by Foci forming unit assay (reference value: 8.55 log10FFU/ml); assay type: functional
[6] = tested on: Chikungunya virus; assay: Antiviral activity against CHIKV infected in green monkey Vero cells assessed as inhibition of viral post entry by entry bypass assay; assay type: functional, organism-based
[7] = tested on: Chikungunya virus; assay: Antiviral activity against CHIKV infected in green monkey Vero cells assessed as inhibition of infectious virus preincubated the cells for 45 mins followed by compound addition and measured after 1 to 6 hrs post infection by time of addition assay; assay type: functional, organism-based; details: time 1-6 hrs
[8] = as §2, with “Selectivity ratio of IC50 for antiviral” for “Antiviral”, “assay to CC50 for cytotoxicity against green monkey Vero cells” for “assay”; assay type: toxicity, cell-based
[9] = tested on: Chikungunya virus; assay: Antiviral activity against CHIKV infected in green monkey Vero cells assessed as reduction in viral titer at 25 uM pretreated the cells with viral infection for 1 hr followed by compound addition and measured after 24 hrs by Foci forming unit assay (reference value: 8.55 log10FFU/ml); assay type: functional
[10] = tested on: Chikungunya virus; assay: Antiviral activity against CHIKV infected in green monkey Vero cells assessed as reduction in viral titer at 1.56 uM pretreated the cells with viral infection for 1 hr followed by compound addition and measured after 24 hrs by Foci forming unit assay (reference value: 8.55 log10FFU/ml); assay type: functional
[11] = tested on: Chikungunya virus; assay: Antiviral activity against CHIKV infected in green monkey Vero cells assessed as reduction in viral titer at 25 uM pretreated with compound for 24 hrs followed by viral infection by foci forming unit assay (reference value: 8.48 log10FFU/ml); assay type: functional
[12] = tested on: Chikungunya virus; assay: Antiviral activity against CHIKV infected in green monkey Vero cells assessed as reduction in viral titer at 50 uM pretreated with compound for 24 hrs followed by viral infection by foci forming unit assay (reference value: 8.48 log10FFU/ml); assay type: functional
[13] = tested on: Chikungunya virus; assay: Antiviral activity against CHIKV infected in green monkey Vero cells assessed as reduction in viral titer pretreated with compound for 24 hrs followed by viral infection by Foci forming unit assay; assay type: functional, organism-based
[14] = tested on: Chikungunya virus; assay: Antiviral activity against CHIKV infected in green monkey Vero cells assessed as reduction in viral titer at 12.5 to 50 uM pretreated the cells with viral infection for 1 hr followed by compound addition and measured after 24 hrs by Foci forming unit assay (reference value: 8.55 log10FFU/ml); assay type: functional; details: dose 12.5-50 µM
[15] = tested on: Chikungunya virus; assay: Antiviral activity against CHIKV infected in green monkey Vero cells assessed as reduction in viral titer at 50 uM pretreated with compound for 24 hrs followed by viral infection by Foci forming unit assay (reference value: 8.81 log10FFU/ml); assay type: functional
[16] = tested on: Chikungunya virus; assay: Antiviral activity against CHIKV infected in green monkey Vero cells assessed as reduction in viral titer at 6.25 uM pretreated with compound for 24 hrs followed by viral infection by Foci forming unit assay (reference value: 8.81 log10FFU/ml); assay type: functional, organism-based
[17] = tested on: Chikungunya virus; assay: Antiviral activity against CHIKV infected in green monkey Vero cells assessed as inhibition of infectious virus preincubated the cells for 45 mins followed by compound addition and measured after 5 to 6 hrs post infection by time of addition assay; assay type: functional; design: scale not given: the % may be the effect or the level left; details: time 5-6 hrs
[18] = tested on: Chikungunya virus; assay: Antiviral activity against CHIKV infected in green monkey Vero cells assessed as inhibition of viral entry by entry assay; assay type: functional, organism-based
[19] = tested on: Chikungunya virus; assay: Antiviral activity against CHIKV infected in green monkey Vero cells assessed as reduction in viral titer at 12.5 to 25 uM pretreated the cells with viral infection for 1 hr followed by compound addition and measured after 24 hrs by Foci forming unit assay (reference value: 8.55 log10FFU/ml); assay type: functional; details: dose 12.5-25 µM

Structure (SMILES)	Activity [1] [%]	CC50 [2] [µM]	IC50 [4] [µM]	selectivity ratio at 24 h [8]	also measured
COc1c(O)cc2oc3cc(O)c(CC=C(C)C)c(O)c3c(=O)c2c1CC=C(C)C [MANGOSTIN]	> 90	15.4	2.2	–	Activity [3]: 7.37 log10FFU/ml; Activity [5]: 7.28 log10FFU/ml
COc1c(OCC(=O)N2CCN(S(=O)(=O)c3ccc(Br)cc3)CC2)cc2oc3cc4c(c(O)c3c(=O)c2c1CC=C(C)C)C=CC(C)(C)O4	> 90	–	–	–	–
O=c1c2cc(O)c(O)cc2oc2cc(O)cc(O)c12	> 90	–	–	–	–
COc1c(OCC#Cc2cccc(C(F)(F)F)c2)cc2oc3cc4c(c(O)c3c(=O)c2c1CC=C(C)C)C=CC(C)(C)O4	> 90	–	–	–	–
COc1c(OCC#Cc2ccccc2Br)cc2oc3cc4c(c(O)c3c(=O)c2c1CC=C(C)C)C=CC(C)(C)O4	> 90	–	–	–	–
COc1c(OCc2cn(-c3c(C)cccc3C)nn2)cc2oc3cc4c(c(O)c3c(=O)c2c1CC=C(C)C)C=CC(C)(C)O4	> 90	–	–	–	Activity [6]: Active
COc1c(OCC#Cc2ccc(O)cc2)cc2oc3cc4c(c(O)c3c(=O)c2c1CC=C(C)C)C=CC(C)(C)O4	> 90	–	–	–	Activity [7]: Active
COc1c(OCc2cn(-c3ccccc3)nn2)cc2oc3cc4c(c(O)c3c(=O)c2c1CC=C(C)C)C=CC(C)(C)O4	> 90	–	–	–	–
CC(C)=CCc1c(O)cc2oc3cc(O)c4c(c3c(=O)c2c1O)CCC(C)(C)O4	> 90	11.4	4.1	2.79	Activity [5]: 7.43 log10FFU/ml
COc1c(OCC(=O)N2CCN(S(=O)(=O)c3ccc(Cl)cc3)CC2)cc2oc3cc4c(c(O)c3c(=O)c2c1CC=C(C)C)C=CC(C)(C)O4	> 90	160	11.2	14.3	Activity [9]: 7.39 log10FFU/ml
COc1c(O)cc2oc3cc4c(c(O)c3c(=O)c2c1CC=C(C)C)C=CC(C)(C)O4 [MANGOSTANIN]	> 90	6.68	1.02	5.55	Activity [3]: 6.42 log10FFU/ml; Activity [10]: 7.47 log10FFU/ml
COc1c(OCc2cn(-c3c(C)cc(C)cc3C)nn2)cc2oc3cc4c(c(O)c3c(=O)c2c1CC=C(C)C)C=CC(C)(C)O4	< 90	–	–	–	–
COc1c(OCc2cn(-c3ccc(C)cc3C)nn2)cc2oc3cc4c(c(O)c3c(=O)c2c1CC=C(C)C)C=CC(C)(C)O4	> 90	–	–	–	–
COc1c(OCC(=O)N2CCN(S(=O)(=O)c3ccc(F)cc3)CC2)cc2oc3cc4c(c(O)c3c(=O)c2c1CC=C(C)C)C=CC(C)(C)O4	> 90	191	26.2	7.3	Activity [11]: 7.21 log10FFU/ml; Activity [12]: 7.13 log10FFU/ml; IC50 [13]: 7.71 µM; Activity [14]: 7.37 log10FFU/ml
Oc1cc(O)c2c(c1)O[C@@H](c1ccc(O)c(O)c1)[C@@H](O)C2 [(+)-EPICATECHIN]	> 90	206	8.65	23.8	Activity [15]: 7.45 log10FFU/ml; Activity [16]: Active; Activity [14]: ~7.4 log10FFU/ml
COc1c(OCc2cn(-c3ccc(Cl)cc3)nn2)cc2oc3cc4c(c(O)c3c(=O)c2c1CC=C(C)C)C=CC(C)(C)O4	> 90	59.7	0.947	63.1	Activity [6]: Active; Activity [17]: >90%; Activity [18]: Active; Activity [7]: Active
COc1c(OCC#Cc2ccc(I)cc2)cc2oc3cc4c(c(O)c3c(=O)c2c1CC=C(C)C)C=CC(C)(C)O4	> 90	–	–	–	–
COc1c(OCC#Cc2ccc(C(C)=O)cc2)cc2oc3cc4c(c(O)c3c(=O)c2c1CC=C(C)C)C=CC(C)(C)O4	> 90	194	0.304	637	Activity [6]: Active; Highest Inhibitory Effect Observed; Activity [18]: Active
O[C@H]1[C@H](O)[C@@H](O)[C@H](O)[C@@H](O)[C@H]1O [INOSITOL]	> 90	–	–	–	–

Structure (SMILES)	Activity [1] [%]	CC50 [2] [µM]	IC50 [4] [µM]	selectivity ratio at 24 h [8]	also measured
COc1c(OCC#Cc2ccc(Cl)cc2)cc2oc3cc4c(c(O)c3c(=O)c2c1CC=C(C)C)C=CC(C)(C)O4	> 90	–	–	–	–
COc1c(OCc2cn(-c3ccc(F)c(Cl)c3)nn2)cc2oc3cc4c(c(O)c3c(=O)c2c1CC=C(C)C)C=CC(C)(C)O4	> 90	–	–	–	–
COc1c(OCc2cn(-c3cccc(F)c3F)nn2)cc2oc3cc4c(c(O)c3c(=O)c2c1CC=C(C)C)C=CC(C)(C)O4	> 90	–	–	–	–
COc1c(OCC(=O)N2CCN(S(=O)(=O)c3ccc(C)cc3)CC2)cc2oc3cc4c(c(O)c3c(=O)c2c1CC=C(C)C)C=CC(C)(C)O4	> 90	–	–	–	–
COc1c(OCc2cn(-c3cc(Cl)ccc3Cl)nn2)cc2oc3cc4c(c(O)c3c(=O)c2c1CC=C(C)C)C=CC(C)(C)O4	> 90	148	1.95	76	Activity [17]: >90%; Activity [18]: Active; Largest Inhibitory Effect Was Observed; Activity [7]: Active
COc1c(OCc2cn(-c3cccc(C(F)(F)F)c3)nn2)cc2oc3cc4c(c(O)c3c(=O)c2c1CC=C(C)C)C=CC(C)(C)O4	> 90	–	–	–	–
C=C(C)C1Cc2c(cc3oc4cc(O)c(OC)c(CC=C(C)C)c4c(=O)c3c2O)O1 (centres undefined) [MANGOSTENONE F]	> 90	12.8	1.96	6.54	Activity [3]: 7.42 log10FFU/ml; IC50 [13]: 21.8 µM
COc1c(OCC(=O)N2CCN(S(=O)(=O)c3ccc(C(F)(F)F)cc3)CC2)cc2oc3cc4c(c(O)c3c(=O)c2c1CC=C(C)C)C=CC(C)(C)O4	> 90	160	6.41	25	Activity [19]: 7.4 log10FFU/ml; Activity [11]: ~7.29 log10FFU/ml; Activity [12]: ~7.29 log10FFU/ml; IC50 [13]: 6.96 µM
CC(C)=CCc1c(O)c(CC=C(C)C)c2oc3c(O)ccc(O)c3c(=O)c2c1O [GARTANIN]	> 90	7.71	3.73	2.07	Activity [5]: 7.42 log10FFU/ml
COc1c(OCc2cn(-c3cccc(C)c3)nn2)cc2oc3cc4c(c(O)c3c(=O)c2c1CC=C(C)C)C=CC(C)(C)O4	> 90	–	–	–	–
COc1c(OCc2cn(-c3ccc(Br)cc3)nn2)cc2oc3cc4c(c(O)c3c(=O)c2c1CC=C(C)C)C=CC(C)(C)O4	< 90	–	–	–	–
COc1c(OCC#Cc2ccccc2)cc2oc3cc4c(c(O)c3c(=O)c2c1CC=C(C)C)C=CC(C)(C)O4	> 90	–	–	–	–
C#CCOc1cc2oc3cc4c(c(O)c3c(=O)c2c(CC=C(C)C)c1OC)C=CC(C)(C)O4	> 90	–	–	–	–
O=c1cc(-c2ccc(O)c(O)c2)oc2c(O)c(O)cc(O)c12 [HYPOLAETIN]	> 90	–	–	–	–
COc1c(OCc2cn(-c3ccc(C)c(C)c3)nn2)cc2oc3cc4c(c(O)c3c(=O)c2c1CC=C(C)C)C=CC(C)(C)O4	> 90	–	–	–	–
COc1c(O)cc2oc3cc(O)c4c(c3c(=O)c2c1CC=C(C)C)OC(C)(C)CC4	> 90	119	29.7	4.01	Activity [3]: 7.39 log10FFU/ml; Activity [15]: 7.62 log10FFU/ml; Activity [16]: Active
COc1c(OCC#Cc2ccc(C#N)cc2)cc2oc3cc4c(c(O)c3c(=O)c2c1CC=C(C)C)C=CC(C)(C)O4	> 90	–	–	–	–
COc1c(OCC(=O)N2CCN(S(=O)(=O)c3ccc(C#N)cc3)CC2)cc2oc3cc4c(c(O)c3c(=O)c2c1CC=C(C)C)C=CC(C)(C)O4	> 90	223	1.88	119	Activity [3]: 7.44 log10FFU/ml
COc1c(OCc2cn(-c3cc(C)ccc3C)nn2)cc2oc3cc4c(c(O)c3c(=O)c2c1CC=C(C)C)C=CC(C)(C)O4	> 90	–	–	–	–
